Read-outs that look alike come from different tables or passages of the source. Marks after values point to notes of the source that are not given here.
Assays:
plasma aldosterone = settings: for Plasma levels of Aldosterone: mean ± SEM
Text: (§1) There were 6 subjects treated with each dose and twelve subjects treated with placebo (two placebo-treated-subjects included with each dose group).
(§2) The diet consisted of 70-80 mEq/day of sodium and 80-90 mEq/day of potassium. Blood samples were obtained daily at the time points indicated in the accompanying Tables for measurements of aldosterone, 11β-deoxycorticosterone (DOC), and potassium (K^+). All of the blood samples were obtained while the subjects were seated in a resting state.
Statistical evaluations of the hormonal responses was performed using the two-tailed, paired Student's t-test to evaluate within treatment group data, and data from between treatment groups utilized the two-tailed t-test equal variance model.

potassium = settings: mean ± SEM
Text: as §1, §2

[1] = Description: The Dynamic Vapour Sorption (DVS) studies were performed using a Surface Measurement Systems Ltd. DVS-1 No Video. The sample was loaded into a balance pan, typically 20-30 mg, and equilibrated at 0% RH. […] After completion of the sorption cycle, the sample was dried using the same method. The software used for data collection was DVSWin v3.01 No Video. Data analysis was performed using DVS Standard Analysis Suite v6.3.0 (Standard).
[2] = up until 225° C., TGA/DSC
Description: The thermogravimetric analysis and differential scanning calorimetry (TGA/DSC) studies were performed using a Mettler Toledo TGA/DSC1 STARe System with a 34-position auto sampler. The samples were made using AI crucibles (40 μL; pierced). Typically 5-10 mg of sample was loaded into a pre-weighed Al crucible and was kept at 30° C. for 5 minutes, after which it was heated at 10° C./min from 30° C. to 350° C. A nitrogen purge of 40 ml/min was maintained over the sample. […] No corrections were applied to the thermogram.

cortisol = assay: ACTH (Synacten) stress test: cortisol response; settings: 16 mg/day
Description: For a stress test, on day 1 of the single dose phase of the study or on day 7 of the multiple dose phase of the study an ACTH (Synacten) stress test was initiated as follows. […] Blood samples were obtained 60 min post-Synacten. The samples were analyzed for aldosterone and 11β-deoxycorticosterone (DOC) by the Clinical Chemistry Unit at the University Hospital Inselspital Bern, Bern Switzerland. Aldosterone was measured using the Liaison® chemiluminescent immunoassay kit supplied by DiaSorin S.p.A. Italy. Because this assay system uses specific monoclonal antibodies for aldosterone there are no cross reactions with other major potential reactants in the serum samples. The assays were performed according to the instructions provided by the manufacturer.
Serum cortisol, estradiol, testosterone, and follicle stimulating hormone (FSH) were measured by Covance's diagnostic unit, Harrogate, UK with the ADVIA Centaur®CP system (Siemens AG). […] The ADVIA Centaur enhanced estradiol assay is a fully automated, monoclonal competitive, chemiluminescent immunoassay, and has a sensitivity of 10 pg/ml. […] The ADVIA Centaur®CP testosterone assay is a competitive, solid phase immunoassay using direct chemiluminescent technology. All of the above assays were conducted as described by the manufacture.

[3] = for AUC0-tau: geometric mean ± geometric CV %
Description: as §1
The blood samples were collected in K2EDTA, centrifuged and the plasma stored at −80° C. The samples were prepared for analysis by liquid/liquid extraction as follows. A 50 μL aliquot was extracted with 25 μL of methanol:water (50:50) and mixed; following which 250 μL of ammonia acetate 100 mM:ammonia hydroxide (95:5) was added and the solution was mixed. 750 μL of ethyl acetate was then added and mixed by aspirating and centrifuged at approximately 2500×g for 5 min. 400 μL of the organic layer was collected and evaporated under nitrogen at 40° C. The dried sample was reconstituted in 200 μL of ammonia acetate 10 mM:methanol:ammonia hydroxide (70:30:0.35) and centrifuged at 2000×g for 5 min. at room temperature. The extracted sample was then subjected to liquid chromatography using a Waters, Acquity, UPLC with a Gemini 3 μm NX-C18, 5×2 mm column. An injection volume of 8 μL was analyzed using Mobil phase A consisting of ammonium acetate 10 mM:ammonium hydroxide (100:0.5) and Mobile phase B consisting of methanol. The purified sample was then analyzed by mass spectrometry (LC-MS/MS). […] The effective calibration range was 0.2 to 200 ng/ml.

[4] = system: ACTH-stimulated aldosterone; settings: for Plasma aldosterone, Difference Post-ACTH vs Pre-ACTH: Day 1

- Mass loss upon heating [2]: 1.4%
- cortisol before ACTH, the one subject below guideline (cortisol): 324 nmol/L
- cortisol in response to ACTH, the one subject below guideline (cortisol; guideline 552 nmol/L): 504 nmol/L
- AUC0-t ([3]; 1 mg single oral dose, Day 1): 45.8 ± 4.16 ng·h/mL
- Cmax ([3]; 1 mg single oral dose, Day 1): 4.68 ± 0.38 ng/mL
- T1/2 ([3]; 1 mg single oral dose, Day 1): 8.19 ± 0.43 h
- Tmax ([3]; 1 mg single oral dose, Day 1): 2.00 ± 0.49 h
- AUC0-t ([3]; 2 mg single oral dose, Day 1): 133 ± 27.41 ng·h/mL
- Cmax ([3]; 2 mg single oral dose, Day 1): 12.0 ± 1.71 ng/mL
- T1/2 ([3]; 2 mg single oral dose, Day 1): 11.3 ± 1.28 h
- Tmax ([3]; 2 mg single oral dose, Day 1): 2.08 ± 0.36 h
- AUC0-t ([3]; 4 mg once daily oral, Day 1): 139 ± 15.0 ng·h/mL
- AUC0-∞ ([3]; 4 mg once daily oral, Day 1): 167 ± 22.0 ng·h/mL
- Cmax ([3]; 4 mg once daily oral, Day 1): 14.0 ± 1.6 ng/mL
- T1/2 ([3]; 4 mg once daily oral, Day 1): 8.47 h
- Tmax ([3]; 4 mg once daily oral, Day 1): 2.08 ± 0.28 h
- AUC0-t ([3]; 4 mg once daily oral, Day 8): 154 ± 20.5 ng·h/mL
- AUC0-∞ ([3]; 4 mg once daily oral, Day 8): 154 ± 20.5 ng·h/mL
- Cmax ([3]; 4 mg once daily oral, Day 8): 15.1 ± 1.1 ng/mL
- T1/2 ([3]; 4 mg once daily oral, Day 8): 8.58 ± 1.1 h
- Tmax ([3]; 4 mg once daily oral, Day 8): 1.92 ± 0.35 h
- AUC0-tau ([3]; 4 mg, Day 1): 134 ± 29.2 ng·h/mL
- AUC0-tau ([3]; 4 mg, Day 8): 148 ± 33.0 ng·h/mL
- AUC0-t ([3]; 8 mg once daily oral, Day 1): 281 ± 24.2 ng·h/mL
- AUC0-∞ ([3]; 8 mg once daily oral, Day 1): 335 ± 31.5 ng·h/mL
- Cmax ([3]; 8 mg once daily oral, Day 1): 29.4 ± 2.5 ng/mL
- T1/2 ([3]; 8 mg once daily oral, Day 1): 8.82 ± 0.4 h
- Tmax ([3]; 8 mg once daily oral, Day 1): 1.81 ± 0.25 h
- AUC0-t ([3]; 8 mg once daily oral, Day 8): 338 ± 28.5 ng·h/mL
- AUC0-∞ ([3]; 8 mg once daily oral, Day 8): 338 ± 28.5 ng·h/mL
- Cmax ([3]; 8 mg once daily oral, Day 8): 37.9 ± 3.9 ng/mL
- T1/2 ([3]; 8 mg once daily oral, Day 8): 8.92 ± 0.5 h
- Tmax ([3]; 8 mg once daily oral, Day 8): 1.56 ± 0.26 h
- AUC0-tau ([3]; 8 mg, Day 1): 274 ± 24.9 ng·h/mL
- AUC0-tau ([3]; 8 mg, Day 8): 331 ± 22.5 ng·h/mL
- AUC0-t ([3]; 16 mg once daily oral, Day 1): 610 ± 34.7 ng·h/mL
- AUC0-∞ ([3]; 16 mg once daily oral, Day 1): 740 ± 65.8 ng·h/mL
- Cmax ([3]; 16 mg once daily oral, Day 1): 66.8 ± 6.1 ng/mL
- T1/2 ([3]; 16 mg once daily oral, Day 1): 9.04 ± 0.8 h
- Tmax ([3]; 16 mg once daily oral, Day 1): 1.88 ± 0.41 h
- AUC0-t ([3]; 16 mg once daily oral, Day 8): 725 ± 51.4 ng·h/mL
- AUC0-∞ ([3]; 16 mg once daily oral, Day 8): 725 ± 51.4 ng·h/mL
- Cmax ([3]; 16 mg once daily oral, Day 8): 77.4 ± 6.9 ng/mL
- T1/2 ([3]; 16 mg once daily oral, Day 8): 9.67 h
- Tmax ([3]; 16 mg once daily oral, Day 8): 1.88 ± 0.40 h
- AUC0-tau ([3]; 16 mg, Day 1): 603 ± 15.8 ng·h/mL
- AUC0-tau ([3]; 16 mg, Day 8): 714 ± 19.1 ng·h/mL
- absorption (Tmax) ([3]; all dose levels): absorbed rapidly at all dose levels
- dose proportionality of Cmax and AUC0-∞ ([3]; all dose levels): dose-proportional
SMILES: N#Cc1ccc([C@H]2CCCc3cncn32)cc1.O=P(O)(O)O [DP13, (R)-(+)-5-(p-cyanophenyl)-5,6,7,8-tetrahydroimidazolium[1,5-a]pyridine dihydrogen phosphate]
- suppression of plasma aldosterone compared to placebo (plasma aldosterone; 1 mg dose): 52%
- suppression of plasma aldosterone compared to pretreatment values (plasma aldosterone; 1 mg dose, 18 and 24 hours after the last once daily dose on day 8 (so in the source)): 18%
- suppression of plasma aldosterone compared to placebo (plasma aldosterone; 2 mg dose): 61%
- suppression of plasma aldosterone compared to pretreatment values (plasma aldosterone; 2 mg dose, 18 and 24 hours after the last once daily dose on day 8 (so in the source)): 39%
- Plasma levels of Aldosterone (plasma aldosterone; 4 mg once daily oral, 8 days, Day 1, 08:00 h, pretreatment): 306.2 ± 59.0 pmol/L
- Plasma levels of Aldosterone (plasma aldosterone; 4 mg once daily, Day 2 (08:00 h)): 198.4 ± 43.4^b,d pmol/L
- Plasma levels of Aldosterone (plasma aldosterone; 4 mg once daily, Day 8, 14:00 h): 166.2 ± 17.9^c,d pmol/L
- Plasma levels of Aldosterone (plasma aldosterone; 4 mg once daily, Day 9, 08:00 h (24 h after last dose)): 334.9 ± 53.3 pmol/L
- plasma aldosterone versus placebo control (plasma aldosterone; 4 mg/day oral, day 9, twenty-four hours after the last of 8 daily doses): failed to lower the plasma aldosterone level below the level of the placebo control
- Plasma levels of Aldosterone (plasma aldosterone; 8 mg once daily oral, 8 days, Day 1, 08:00 h, pretreatment): 271.4 ± 31.5 pmol/L
- Plasma levels of Aldosterone (plasma aldosterone; 8 mg once daily, Day 2 (08:00 h)): 118.0 ± 12.4^b,d pmol/L
- Plasma levels of Aldosterone (plasma aldosterone; 8 mg once daily, Day 8, 14:00 h): 91.9 ± 7.5^c,d pmol/L
- Plasma levels of Aldosterone (plasma aldosterone; 8 mg once daily, Day 9, 08:00 h (24 h after last dose)): 186.4 ± 22.1^d pmol/L
- suppression of plasma aldosterone compared to pretreatment values (plasma aldosterone; 8 mg once daily, twenty-four hours after the last dose on day 8): 32%
- Plasma levels of Aldosterone (plasma aldosterone; 16 mg once daily oral, 8 days, Day 1, 08:00 h, pretreatment): 314.6 ± 48.6 pmol/L
- Plasma levels of Aldosterone (plasma aldosterone; 16 mg once daily, Day 2 (08:00 h)): 108.4 ± 13.4^b,d pmol/L
- Plasma levels of Aldosterone (plasma aldosterone; 16 mg once daily, Day 8, 14:00 h): 100.9 ± 8.3^c,d pmol/L
- Plasma levels of Aldosterone (plasma aldosterone; 16 mg once daily, Day 9, 08:00 h (24 h after last dose)): 156.0 ± 26.8^a,d pmol/L
- suppression of plasma aldosterone compared to pretreatment values (plasma aldosterone; 16 mg once daily, twenty-four hours after the last dose on day 8): 50%
- Plasma levels of Aldosterone (plasma aldosterone; single dose 1 mg, Day 1, 08:00 h, pretreatment): 171 ± 8.1 pmol/L
- Plasma levels of Aldosterone (plasma aldosterone; single dose 1 mg, Day 1, 14:00 h): 118 ± 8.4^e pmol/L
- Plasma levels of Aldosterone (plasma aldosterone; single dose 1 mg, Day 1, 20:00 h): 104 ± 4.9^e pmol/L
- Plasma levels of Aldosterone (plasma aldosterone; single dose 1 mg, Day 2, 08:00 h): 141 ± 14^e pmol/L
- Plasma levels of Aldosterone (plasma aldosterone; single dose 2 mg, Day 1, 08:00 h, pretreatment): 203 ± 13.8 pmol/L
- Plasma levels of Aldosterone (plasma aldosterone; single dose 2 mg, Day 1, 14:00 h): 129 ± 8.8^e pmol/L
- Plasma levels of Aldosterone (plasma aldosterone; single dose 2 mg, Day 1, 20:00 h): 114 ± 9.2^e pmol/L
- Plasma levels of Aldosterone (plasma aldosterone; single dose 2 mg, Day 2, 08:00 h): 124 ± 9^e pmol/L
- Blood levels of potassium (potassium; 4 mg once daily, Day 1 (08:00 h), pretreatment): 4.4 ± 0.6 mmol/L
- Blood levels of potassium (potassium; 4 mg once daily, Day 8, 08:00 h pre-dose): 4.8 ± 0.8^a,b mmol/L
- Blood levels of potassium (potassium; 8 mg once daily, Day 1 (08:00 h), pretreatment): 4.3 ± 0.07 mmol/L
- Blood levels of potassium (potassium; 8 mg once daily, Day 8, 08:00 h pre-dose): 4.6 ± 0.09^a,b mmol/L
- Blood levels of potassium (potassium; 16 mg once daily, Day 1 (08:00 h), pretreatment): 4.4 ± 0.11 mmol/L
- Blood levels of potassium (potassium; 16 mg once daily, Day 8, 08:00 h pre-dose): 4.7 ± 0.06^a,b mmol/L
- crystalline form upon DVS treatment [1]: crystalline form does not change upon DVS treatment
- Plasma levels of Aldosterone, Pre-ACTH ([4]; 4 mg once daily, Day 7, 09:30 h ([…] post-dose), mean ± SEM): 203.5 ± 26.7 pmol/L
- Plasma levels of Aldosterone, Post-ACTH ([4]; 4 mg once daily, Day 7, 11:00 h, ACTH i.v. at 10:00 h, mean ± SEM): 181.1 ± 14.3^b pmol/L
- Plasma levels of Aldosterone, Pre-ACTH ([4]; 8 mg once daily, Day 7, 09:30 h, mean ± SEM): 121.0 ± 14.0 pmol/L
- Plasma levels of Aldosterone, Post-ACTH ([4]; 8 mg once daily, Day 7, 11:00 h, mean ± SEM): 115.5 ± 10.6^b pmol/L
- Plasma levels of Aldosterone, Pre-ACTH ([4]; 16 mg once daily, Day 7, 09:30 h, mean ± SEM): 102.2 ± 13.4 pmol/L
- Plasma levels of Aldosterone, Post-ACTH ([4]; 16 mg once daily, Day 7, 11:00 h, mean ± SEM): 103.4 ± 11.1^b pmol/L
- effect on aldosterone increase elicited by ACTH ([4]; 4, 8, or 16 mg once daily oral, day 7): able to prevent the 2- to 3-fold increases in aldosterone elicited by ACTH
- Plasma aldosterone, Difference Post-ACTH vs Pre-ACTH ([4]; single dose 1 mg): (−6) pmol/L
- Plasma levels of Aldosterone, Pre-ACTH ([4]; single dose 1 mg, Day 1, 09:30 h, mean ± SD, N = six): 99 ± 13 pmol/L
- Plasma levels of Aldosterone, Post-ACTH ([4]; single dose 1 mg, Day 1, 11:00 h, mean ± SD, N = six): 94 ± 6^a pmol/L
- Plasma aldosterone, Difference Post-ACTH vs Pre-ACTH ([4]; single dose 2 mg): (−12) pmol/L
- Plasma levels of Aldosterone, Pre-ACTH ([4]; single dose 2 mg, Day 1, 09:30 h, mean ± SD, N = six): 132 ± 22 pmol/L
- Plasma levels of Aldosterone, Post-ACTH ([4]; single dose 2 mg, Day 1, 11:00 h, mean ± SD, N = six): 120 ± 20^a pmol/L

Reference: US11992479B2, “R-fadrozole for use in the treatment of aldostonerism” (priority 2018, dated 2024)
